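Dose response: 5 concentrations. Exposure: 48 h. Format: 96-well plates. Endpoint: linear interpolation; highest concentration if not reached. GI50: concentration for 50% inhibition of growth. TGI: total growth inhibition.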
Key:
Assay in all cases: growth of human tumour cells (NCI), 48 h
[1] = test system: CAKI-1 renal
[2] = test system: NCI/ADR-RES ovarian
[3] = test system: UACC-62 melanoma
[4] = test system: A498 renal
[5] = test system: M14 melanoma
[6] = test system: BT-549 breast
[7] = test system: NCI-H23 lung
[8] = test system: SF-539 CNS
[9] = test system: HOP-92 NSCLC
[10] = test system: HCC-2998 colon

Row | SMILES | TGI [1] | TGI [2] | TGI [3] | TGI [4] | TGI [5] | TGI [6] | TGI [7] | TGI [8] | TGI [9] | GI50 [1] | GI50 [3] | GI50 [4] | GI50 [5] | GI50 [7] | GI50 [8] | TGI [10] | GI50 [2] | GI50 [10] | GI50 [6] | GI50 [9]
1 | NC(Cc1cc(Br)c(O)c(Br)c1)C(=O)O (configuration not stated) | > 100 µM | > 100 µM | > 100 µM | > 100 µM | > 100 µM | > 100 µM | > 100 µM | > 100 µM | > 100 µM |  |  |  |  |  |  |  |  |  |  | 
2 | CCC[CH2][Sn]([CH2]CCC)([O]C(=O)c1cc(OC)c(OC)c(OC)c1)[O]C(=O)c1cc(OC)c(OC)c(OC)c1 | 1.31 µM |  | 2.12 µM | 3.02 µM | 2.83 µM |  | 1.56 µM | 2.12 µM |  | 0.3 µM | 0.892 µM | 1.17 µM | 1.42 µM | 0.437 µM | 0.788 µM |  |  |  |  | 
3 | O=[n+]1cnn([O-])c2ccccc21 | 55.1 µM | > 100 µM | 39.4 µM | > 100 µM | 64 µM | 54.4 µM | > 100 µM | 55.7 µM |  |  |  |  |  |  |  | > 100 µM |  |  |  | 
4 | CCCCCCCCC(=O)CCCCCCCCC(=O)O | > 100 µM |  | 54.6 µM | 47.8 µM | 82.8 µM |  | 85.8 µM | 42.5 µM | 35.2 µM |  |  |  |  |  |  |  |  |  |  | 
5 | CC(=O)c1cc2c3c(c1)c1cc4c(cc1c(=O)n3CC2)OCO4 | 91.3 µM |  | 53.9 µM |  | > 100 µM |  | > 100 µM | > 100 µM | > 100 µM |  |  |  |  |  |  | > 100 µM |  |  |  | 
6 | O=C1OCC2=C1C(c1ccccc1)c1cc3c(cc1N2CCO)CCC3 (configuration not stated) | > 25 µM | 0.139 µM | > 25 µM | 0.657 µM | 0.351 µM | > 25 µM | > 9.91 µM | 0.966 µM |  | 0.0868 µM | 0.111 µM | 0.0746 µM | 0.0722 µM | 0.106 µM | 0.0732 µM | 0.941 µM | 0.0521 µM | 0.115 µM | 0.223 µM | 
7 | O=C(/C=C/c1ccccc1O)c1ccccc1 | 20.8 µM | > 100 µM | 25.9 µM | 28.6 µM | 21.4 µM |  | 23.2 µM | 34.1 µM | 23 µM | 4.26 µM | 13.1 µM | 15.2 µM | 8.23 µM | 9.63 µM | 15.4 µM | 32.6 µM | 21.7 µM | 17.9 µM |  | 8.77 µM
8 | C[CH2][Sn]1([CH2]C)[O]C2C(O)OC(CO)C(O)C2[O]1 (configuration not stated) | > 100 µM | > 100 µM | 39.6 µM | 42 µM | > 100 µM |  | 93 µM | 32.5 µM | 47 µM | 31.1 µM | 17.9 µM | 18.9 µM | 37.3 µM | 24.2 µM | 17.3 µM |  | > 100 µM |  |  | 20 µM
9 | Cc1c(NC(=O)CCCl)c(=O)oc2c(C)c3occc(=O)c3cc12 | > 100 µM | > 100 µM |  | 76.2 µM | > 100 µM |  | > 100 µM |  | > 100 µM |  |  |  |  |  |  | > 100 µM |  |  |  | 
10 | O=C(Nc1cccc(-n2cc(-c3ccncc3)c(-c3cc(O)cc(Cl)c3)n2)c1)Nc1ccc(Cl)c(Cl)c1 | 7.01 µM | > 100 µM | 3.76 µM | 9.06 µM | 3.28 µM | 5.22 µM | 6.29 µM | 3.27 µM |  | 2.21 µM | 1.69 µM | 2.09 µM | 1.44 µM | 2.41 µM | 1.44 µM | 8.99 µM | 3.21 µM | 2.93 µM | 2.06 µM | 
11 | COC(=O)C(=C\Sc1ccccc1)/C=C/C(=O)OC(C)(C)C | 12.1 µM |  | 28.8 µM |  | 21.2 µM |  | 33.1 µM | 27 µM | 13.3 µM |  |  |  |  |  |  | 21.6 µM |  |  |  | 
12 | O=S1Cc2ccccc2CS1 (configuration not stated) | 31.1 µM |  | 28.9 µM | > 100 µM | 28.3 µM |  | 28.3 µM | 24.5 µM | 34.1 µM |  |  |  |  |  |  | 93.2 µM |  |  |  | 
13 | Cc1cc(NC(=O)NC(=O)c2ccccc2[N+](=O)[O-])ccc1Oc1ncc(Cl)cn1 |  |  | > 31.6 µM | 19.6 µM | 35.7 µM | 91.5 µM | > 80.5 µM | 9.5 µM |  |  |  |  |  |  |  | 0.6 µM |  |  |  | 
14 | N#Cc1cc(-c2ccccc2)[nH]c1-c1nccc2ccccc12 | > 100 µM | > 100 µM | > 100 µM | > 100 µM | 84.7 µM | > 100 µM | > 100 µM | > 100 µM |  | 12.5 µM | 7.36 µM | 26.3 µM | 14.9 µM | 6.31 µM | 32.7 µM | > 100 µM | 6.44 µM | 18.9 µM | 10.1 µM | 
15 | COC(=O)C1C2CC3C(OC(=O)C31)C2I (configuration not stated) | > 100 µM |  | > 100 µM | > 100 µM | > 100 µM |  | > 100 µM | > 100 µM | > 100 µM |  |  |  |  |  |  | > 100 µM |  |  |  | 
16 | Nc1ccn(C2OC(CO[P+](=O)OC3C(CO[P+](=O)OC4C(CO[P+](=O)OC5C(CO[P+](=O)OC6C(CO[P+](=O)OC7C(CO[P+](=O)OC8C(CO[P+](=O)OC9C(CO[P+](=O)OC%10C(CO[P+](=O)OC%11C(CO)OC(n%12ccc(N)nc%12=O)C%11(F)F)OC(n%11ccc(N)nc%11=O)C%10(F)F)OC(n%10ccc(N)nc%10=O)C9(F)F)OC(n9ccc(N)nc9=O)C8(F)F)OC(n8ccc(N)nc8=O)C7(F)F)OC(n7ccc(N)nc7=O)C6(F)F)OC(n6ccc(N)nc6=O)C5(F)F)OC(n5ccc(N)nc5=O)C4(F)F)OC(n4ccc(N)nc4=O)C3(F)F)C(O)C2(F)F)c(=O)n1 (configuration not stated) |  | > 100 µM |  | > 100 µM | 0.27 µM |  |  |  |  |  |  |  | 0.0397 µM |  |  | > 100 µM |  | 0.339 µM | 0.426 µM | 
17 | S=C1CNC(=S)CN1 | > 100 µM |  | > 100 µM | > 100 µM | > 100 µM |  |  | > 100 µM | > 100 µM |  |  |  |  |  |  | > 100 µM |  |  |  | 
18 | NCC(=O)Nc1ccc(-n2nc(C(F)(F)F)cc2-c2ccc3c(ccc4ccccc43)c2)cc1 | 2.66 µM | 3.12 µM |  | 3.84 µM | 3.24 µM |  | 3.75 µM | 2.41 µM | 2.65 µM | 1.17 µM |  | 1.86 µM | 1.61 µM | 1.78 µM | 1.06 µM |  | 1.12 µM |  |  | 1.27 µM

Reference: PubChem BioAssay (NCI)
